From patent EP1129097B1, “NOVEL TYPE CONDENSED PYRIDAZINONE COMPOUNDS” (GYOGYSZERKUTATO INTEZET KFT., priority 1998, dated 2000)

How the values were obtained:
[1] = system: AMPA; assay: AMPA-induced spreading depression of chick retina; details: concentration of 20 µM
Method: The AMPA antagonistic effect of the compounds was also tested on spreading depression of chick retina (Sheardown, M. J.: Brain Res., 1993, 607, 189) in a concentration of 20 µM.

[2] = system: scopolamine-induced memory-deficit in rats; assay: passive avoidance test, counter-balancing scopolamine-induced memory-deficit; type: in vivo; details: oral doses of 50 mg/kg
Method: The memory-enhancing effect of the compounds according to the invention was measured by counter-balancing the scopolamine-induced memory-deficit in rats, with oral doses of 50 mg/kg, in the passive avoidance test published by Cumin, R. et al. [Psychopharmacology, 78, 104 (1982)].

Row | Structure (SMILES) | Antagonistic effect on AMPA-induced spreading depression (%) [1] [%] | Memory improvement compared to amnesic control (%) [2] [%]
1 | Cn1ncc2c(c1=O)SCCNC2C(=O)c1ccccc1 (stereo not shown) [Example 3, 5-Benzoyl-8-methyl-2,3,4,5-tetrahydro-9(8H)-pyridazino[4,5-b][1,5]thiazepinone] | 10 | 100
2 | O=c1c2c(cnn1CC=Cc1ccccc1)N(Cc1ccccc1)CCCO2 [Example 7, 5-Benzyl-8-cynnamyl-2,3,4,5-tetrahydro-9(8H)-pyridazino[4,5-b] [1,5]oxazepinone] | 16 | 250
